# Laboratory results reported in patent publication US7935525B2, “Inhibition of ATF2 activity to treat cancer” (Mount Sinai School of Medicine, priority 2001, dated 2011).
# No end group written: not given here.
# How the values were obtained:
# FEMX melanoma cell line = test: Colony forming efficiency (CFE) resistance assay; format: cell-based, human
# Procedure: (§1) Radiation resistance. Cells (500 or 1500 per well) were plated in triplicates on 6 well plates, 24 h before treatment (Ronai et al., Oncogene 1998; 16:523-531). In all cases, plating efficiency was pre-determined so that number of cell plated was normalized respectively. Colonies (greater than 50 cells per clone) were stained with crystal violet solution (3% in 10% methanol and PBS), 14 days After treatment. % of CFE in each treatment group was calculated based on total CFE formed in the respective controls (100%).
# [1] = tested on: LU1205 melanoma cell line; test: Colony forming efficiency (CFE) resistance assay; format: cell-based, human
# Procedure: as §1
# [2] = tested on: ATF2 transcriptional activity; test: Jun2 promoter reporter in Jun null fibroblasts; format: cell-based
substance,measurement,setting,value
"peptide II: N-terminal polypeptide fragment of ATF2, amino acid residues 50-100, expressed from pcDNA3 with HA-penetratin tag (EMTLKFGPARNDSVIVADQTPTPTRFLKNCEEVGLFNELASPFENEFKKAS; also: HA-penetratin tag, position not given here; UniProt P15336 50-100, looked up, fragment)",decrease in the fraction of CFE,"FEMX melanoma cell line; peptide-expressing FEMX vs FEMX neo, 1 µM MMC, 14 days",≤ 10 fold
same,decrease in % of CFE,"FEMX melanoma cell line; peptide-expressing FEMX vs neo control, UV-C 9-36 J/m^2, colonies at 14 days",up to 10 fold
same,effects on the sensitivity to MMC (CFE),"[1]; peptide-expressing LU1205, MMC",much less pronounced effects
same,decrease in the % of CFE,"[1]; peptide-expressing LU1205 vs neo control, UV-C 9-36 J/m^2, colonies at 14 days",≤ 3 fold
same,sensitivity to NCS (CFE),"[1]; peptide-expressing melanoma cells, NCS",did not reveal substantial differences
same,transcriptional activity mediated from the Jun2 promoter,[2],marked inhibition
